Here are results for one compound from patent US7851510B2, “Gossypol derivatives, production method thereof and uses of same” (Centre National de la Recherche Scientifique (C.N.R.S.), priority 2004, dated 2010).

Common to all, as to assay: Protein kinase activity in the presence of compound
Common to all, as to format: biochemical

One assay relates to AMPK. Particulars: 10 μM compound; percentage of the activity measured in the absence of inhibitors. The method, then:
(§1) The action of the compound of formula (14) was tested on a selection of 29 different protein kinases. The activity of these enzymes was measured in the presence of 10 μM of compound, according to the general methodology described by Bain et al. (2003) Biochem. J. 371:199-204 and Davies et al. (2000) Biochem. J. 351:95-105.
(§2) Residual enzyme activity of protein kinases in the presence of inhibitor compounds at the concentration given (expressed as a percentage of the activity measured in the absence of inhibitors). The results obtained for gossypol and gossypolone are given by way of comparison.

In a further assay the target is JNK/SAPK1c (Homo sapiens, UniProt P45983). Particulars: read-out: Residual activity JNK/SAPK1c. The method, then:
as §1, §2

Another assay has as its target MAPKAP-K1a (Homo sapiens, UniProt Q15418). Conditions: read-out: Residual activity MAPKAP-K1a. The method, then: as §1, §2
In the next assay the target is SAPK2a/p38 (Homo sapiens, UniProt Q16539). Particulars: read-out: Residual activity SAPK2a/p38. The procedure: as §1, §2
Chain of SAPK2a/p38 (Q16539 whole entry): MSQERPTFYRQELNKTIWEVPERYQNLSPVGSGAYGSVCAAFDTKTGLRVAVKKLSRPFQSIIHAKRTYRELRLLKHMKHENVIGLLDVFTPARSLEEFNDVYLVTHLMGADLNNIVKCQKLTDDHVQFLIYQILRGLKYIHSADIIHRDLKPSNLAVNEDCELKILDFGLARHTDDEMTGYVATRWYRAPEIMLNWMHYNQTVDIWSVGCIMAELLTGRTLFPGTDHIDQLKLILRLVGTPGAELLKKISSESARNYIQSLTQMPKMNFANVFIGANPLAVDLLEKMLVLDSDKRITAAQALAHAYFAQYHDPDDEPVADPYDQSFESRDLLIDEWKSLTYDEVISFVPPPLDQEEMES
For the next assay, the target named is MKK1 (Homo sapiens, UniProt Q02750). Particulars: read-out: Residual activity MKK1. The method, then: as §1, §2
Chain of MKK1 (Q02750 whole entry, species assumed): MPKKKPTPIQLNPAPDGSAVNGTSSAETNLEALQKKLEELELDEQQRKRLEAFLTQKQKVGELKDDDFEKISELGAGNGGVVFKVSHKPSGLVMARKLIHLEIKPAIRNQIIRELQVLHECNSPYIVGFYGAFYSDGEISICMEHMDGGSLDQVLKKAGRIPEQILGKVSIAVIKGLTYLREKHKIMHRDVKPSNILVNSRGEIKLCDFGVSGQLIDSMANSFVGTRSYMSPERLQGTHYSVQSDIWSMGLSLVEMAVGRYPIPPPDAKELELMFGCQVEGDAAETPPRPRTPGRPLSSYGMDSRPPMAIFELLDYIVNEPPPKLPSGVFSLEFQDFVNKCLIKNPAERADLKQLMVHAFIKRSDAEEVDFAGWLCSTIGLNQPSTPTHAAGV
The target in a further assay is SAPK2b/p38β2 (Homo sapiens, UniProt Q15759). Conditions: read-out: Residual activity SAPK2b/p38β2. The procedure: as §1, §2
Chain of SAPK2b/p38β2 (Q15759 whole entry): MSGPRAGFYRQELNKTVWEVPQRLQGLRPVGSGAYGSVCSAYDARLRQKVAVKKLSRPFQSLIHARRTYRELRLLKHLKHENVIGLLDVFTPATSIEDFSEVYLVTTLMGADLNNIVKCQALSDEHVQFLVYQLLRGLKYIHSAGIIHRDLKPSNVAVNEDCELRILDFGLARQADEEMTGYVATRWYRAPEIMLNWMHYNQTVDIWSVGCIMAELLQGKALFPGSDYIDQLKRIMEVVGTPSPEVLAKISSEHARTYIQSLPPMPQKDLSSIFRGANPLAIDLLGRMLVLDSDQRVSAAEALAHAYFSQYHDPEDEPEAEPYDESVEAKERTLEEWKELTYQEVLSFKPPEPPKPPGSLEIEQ
Another assay has as its target T1, CHK1 (Homo sapiens, UniProt O14757).
T1 sequence (O14757 1-476): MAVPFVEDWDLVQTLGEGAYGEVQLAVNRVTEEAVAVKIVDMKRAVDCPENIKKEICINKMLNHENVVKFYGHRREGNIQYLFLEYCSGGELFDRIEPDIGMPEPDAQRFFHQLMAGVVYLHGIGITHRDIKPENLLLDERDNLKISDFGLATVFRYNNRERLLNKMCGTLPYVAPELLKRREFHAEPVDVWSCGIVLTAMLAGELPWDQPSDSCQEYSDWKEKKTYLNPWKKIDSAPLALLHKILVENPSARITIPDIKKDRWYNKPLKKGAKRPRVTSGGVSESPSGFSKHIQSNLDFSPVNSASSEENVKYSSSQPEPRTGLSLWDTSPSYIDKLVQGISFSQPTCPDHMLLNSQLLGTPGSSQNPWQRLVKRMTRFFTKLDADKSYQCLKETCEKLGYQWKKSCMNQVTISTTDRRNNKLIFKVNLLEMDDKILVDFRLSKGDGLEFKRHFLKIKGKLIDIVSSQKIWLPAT
Particulars: read-out: Residual activity CHK1. The procedure:
as §1, §2

The next assay addresses ROCK-II (Homo sapiens, UniProt O75116). Conditions: read-out: Residual activity ROCK-II. The procedure:
as §1, §2

The target of a further assay is Lck (Homo sapiens, UniProt P06239). Conditions: read-out: Residual activity Lck. The method, then:
as §1, §2

The next assay addresses GSK3b (Homo sapiens, UniProt P49841). Particulars: read-out: Residual activity GSK3b. The method, then:
as §1, §2

Another assay addresses T2, SAPK3/p38g (Homo sapiens, UniProt P53778).
T2 sequence (P53778 1-367): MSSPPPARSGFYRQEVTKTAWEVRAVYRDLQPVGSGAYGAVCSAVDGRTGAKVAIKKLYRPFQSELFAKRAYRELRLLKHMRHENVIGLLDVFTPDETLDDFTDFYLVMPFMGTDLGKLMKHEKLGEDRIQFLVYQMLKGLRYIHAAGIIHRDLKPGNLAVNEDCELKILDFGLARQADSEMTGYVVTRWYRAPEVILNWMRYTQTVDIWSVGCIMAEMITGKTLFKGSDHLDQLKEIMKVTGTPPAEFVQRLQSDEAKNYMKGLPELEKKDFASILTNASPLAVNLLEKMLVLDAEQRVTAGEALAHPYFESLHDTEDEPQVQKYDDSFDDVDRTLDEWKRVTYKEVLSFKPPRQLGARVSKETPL
Conditions: read-out: Residual activity SAPK3/p38g. The method, then: as §1, §2

The next assay concerns the target NEK6 (Homo sapiens, UniProt Q9HC98). Conditions: read-out: Residual activity NEK6. The method, then:
as §1, §2

A further assay deals with CDK2/cyclin A (Homo sapiens, UniProt P24941). Conditions: read-out: Residual activity CDK2/cyclin A. The method, then: as §1, §2
The next assay has as its target PKA (Homo sapiens, UniProt P17612). Conditions: read-out: Residual activity PKA. The method, then: as §1, §2
The target of another assay is PHK (Oryctolagus cuniculus, UniProt P00518). Particulars: read-out: Residual activity PHK. The method, then:
as §1, §2

Another assay addresses MAPKAP-K2 (Homo sapiens, UniProt P49137). Conditions: read-out: Residual activity MAPKAP-K2. The procedure:
as §1, §2

In a further assay the target is MAPK2/ERK2 (Homo sapiens, UniProt P28482). Particulars: read-out: Residual activity MAPK2/ERK2. The procedure: as §1, §2
Chain of MAPK2/ERK2 (P28482 whole entry): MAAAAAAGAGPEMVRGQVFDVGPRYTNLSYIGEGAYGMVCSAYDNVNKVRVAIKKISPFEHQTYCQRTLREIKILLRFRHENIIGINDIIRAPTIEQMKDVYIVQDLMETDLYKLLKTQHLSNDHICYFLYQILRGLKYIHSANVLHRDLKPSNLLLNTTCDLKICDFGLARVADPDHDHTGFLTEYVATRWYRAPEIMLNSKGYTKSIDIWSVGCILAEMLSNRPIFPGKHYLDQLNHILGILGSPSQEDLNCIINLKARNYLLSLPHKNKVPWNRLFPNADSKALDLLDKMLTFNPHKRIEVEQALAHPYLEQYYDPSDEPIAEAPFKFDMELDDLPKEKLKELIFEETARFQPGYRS
The next assay concerns the target T3, PRAK (Homo sapiens, UniProt Q8IW41).
T3 sequence (Q8IW41 1-473): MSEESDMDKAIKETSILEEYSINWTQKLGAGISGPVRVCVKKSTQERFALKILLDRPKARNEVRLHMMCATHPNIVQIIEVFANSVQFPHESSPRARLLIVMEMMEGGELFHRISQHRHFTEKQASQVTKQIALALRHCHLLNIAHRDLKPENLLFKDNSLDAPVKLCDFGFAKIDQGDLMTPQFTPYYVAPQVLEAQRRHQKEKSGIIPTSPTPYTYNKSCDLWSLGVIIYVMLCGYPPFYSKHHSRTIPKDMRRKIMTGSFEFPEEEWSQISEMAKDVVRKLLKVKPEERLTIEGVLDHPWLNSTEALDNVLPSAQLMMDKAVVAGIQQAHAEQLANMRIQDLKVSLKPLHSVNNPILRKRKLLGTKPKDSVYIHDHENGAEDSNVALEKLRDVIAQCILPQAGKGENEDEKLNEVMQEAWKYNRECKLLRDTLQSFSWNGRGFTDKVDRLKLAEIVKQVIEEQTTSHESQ
Conditions: read-out: Residual activity PRAK. The method, then:
as §1, §2

The next assay addresses MSK1 (Homo sapiens, UniProt O75582). Particulars: read-out: Residual activity MSK1. The method, then: as §1, §2

Chain of Lck (P06239 whole entry, species assumed): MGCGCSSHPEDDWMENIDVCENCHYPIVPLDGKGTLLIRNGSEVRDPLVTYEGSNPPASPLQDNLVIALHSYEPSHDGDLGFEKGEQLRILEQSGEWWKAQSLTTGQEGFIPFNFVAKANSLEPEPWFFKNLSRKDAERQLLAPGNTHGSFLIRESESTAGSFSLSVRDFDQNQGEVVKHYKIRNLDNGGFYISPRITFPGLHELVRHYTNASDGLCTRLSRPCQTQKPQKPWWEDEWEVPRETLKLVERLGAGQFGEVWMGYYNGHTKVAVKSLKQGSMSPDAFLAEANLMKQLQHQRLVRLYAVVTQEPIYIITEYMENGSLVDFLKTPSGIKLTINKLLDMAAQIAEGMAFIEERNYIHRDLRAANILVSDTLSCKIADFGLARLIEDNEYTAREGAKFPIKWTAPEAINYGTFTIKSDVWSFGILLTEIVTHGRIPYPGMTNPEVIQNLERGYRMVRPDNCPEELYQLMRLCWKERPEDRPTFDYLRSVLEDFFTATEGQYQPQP
Chain of MSK1 (O75582 whole entry, species assumed): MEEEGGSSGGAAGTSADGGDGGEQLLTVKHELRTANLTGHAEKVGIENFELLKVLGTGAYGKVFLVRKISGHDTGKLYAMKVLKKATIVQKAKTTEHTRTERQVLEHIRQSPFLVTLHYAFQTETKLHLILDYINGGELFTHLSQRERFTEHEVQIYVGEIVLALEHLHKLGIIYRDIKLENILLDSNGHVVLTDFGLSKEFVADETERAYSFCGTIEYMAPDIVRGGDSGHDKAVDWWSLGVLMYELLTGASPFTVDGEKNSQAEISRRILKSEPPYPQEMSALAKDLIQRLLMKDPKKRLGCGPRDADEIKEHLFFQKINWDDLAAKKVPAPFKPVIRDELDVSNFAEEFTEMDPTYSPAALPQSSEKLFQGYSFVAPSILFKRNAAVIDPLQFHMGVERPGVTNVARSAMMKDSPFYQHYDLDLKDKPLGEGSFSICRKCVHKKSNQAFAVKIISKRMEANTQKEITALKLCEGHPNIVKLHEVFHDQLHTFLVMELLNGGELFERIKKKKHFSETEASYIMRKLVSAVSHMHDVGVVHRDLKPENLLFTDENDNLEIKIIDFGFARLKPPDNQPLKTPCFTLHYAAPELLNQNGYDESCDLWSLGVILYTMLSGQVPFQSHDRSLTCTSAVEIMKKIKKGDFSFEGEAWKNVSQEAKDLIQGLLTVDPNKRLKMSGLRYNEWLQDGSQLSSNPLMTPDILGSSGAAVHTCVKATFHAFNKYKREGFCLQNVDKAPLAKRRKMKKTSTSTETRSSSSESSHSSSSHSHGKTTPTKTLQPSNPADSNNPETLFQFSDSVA
Chain of GSK3b (P49841 whole entry, species assumed): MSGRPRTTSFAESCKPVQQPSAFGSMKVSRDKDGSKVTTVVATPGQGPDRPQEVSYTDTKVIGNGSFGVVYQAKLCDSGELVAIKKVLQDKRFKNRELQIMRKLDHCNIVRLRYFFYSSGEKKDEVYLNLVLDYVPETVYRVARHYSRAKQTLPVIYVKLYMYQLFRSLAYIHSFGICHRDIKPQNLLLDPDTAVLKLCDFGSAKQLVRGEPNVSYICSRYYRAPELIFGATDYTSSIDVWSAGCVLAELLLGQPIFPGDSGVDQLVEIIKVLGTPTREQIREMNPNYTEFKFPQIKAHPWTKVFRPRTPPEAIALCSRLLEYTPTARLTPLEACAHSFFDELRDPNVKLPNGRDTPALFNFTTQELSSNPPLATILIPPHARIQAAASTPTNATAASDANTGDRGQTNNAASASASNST
Chain of ROCK-II (O75116 whole entry, species assumed): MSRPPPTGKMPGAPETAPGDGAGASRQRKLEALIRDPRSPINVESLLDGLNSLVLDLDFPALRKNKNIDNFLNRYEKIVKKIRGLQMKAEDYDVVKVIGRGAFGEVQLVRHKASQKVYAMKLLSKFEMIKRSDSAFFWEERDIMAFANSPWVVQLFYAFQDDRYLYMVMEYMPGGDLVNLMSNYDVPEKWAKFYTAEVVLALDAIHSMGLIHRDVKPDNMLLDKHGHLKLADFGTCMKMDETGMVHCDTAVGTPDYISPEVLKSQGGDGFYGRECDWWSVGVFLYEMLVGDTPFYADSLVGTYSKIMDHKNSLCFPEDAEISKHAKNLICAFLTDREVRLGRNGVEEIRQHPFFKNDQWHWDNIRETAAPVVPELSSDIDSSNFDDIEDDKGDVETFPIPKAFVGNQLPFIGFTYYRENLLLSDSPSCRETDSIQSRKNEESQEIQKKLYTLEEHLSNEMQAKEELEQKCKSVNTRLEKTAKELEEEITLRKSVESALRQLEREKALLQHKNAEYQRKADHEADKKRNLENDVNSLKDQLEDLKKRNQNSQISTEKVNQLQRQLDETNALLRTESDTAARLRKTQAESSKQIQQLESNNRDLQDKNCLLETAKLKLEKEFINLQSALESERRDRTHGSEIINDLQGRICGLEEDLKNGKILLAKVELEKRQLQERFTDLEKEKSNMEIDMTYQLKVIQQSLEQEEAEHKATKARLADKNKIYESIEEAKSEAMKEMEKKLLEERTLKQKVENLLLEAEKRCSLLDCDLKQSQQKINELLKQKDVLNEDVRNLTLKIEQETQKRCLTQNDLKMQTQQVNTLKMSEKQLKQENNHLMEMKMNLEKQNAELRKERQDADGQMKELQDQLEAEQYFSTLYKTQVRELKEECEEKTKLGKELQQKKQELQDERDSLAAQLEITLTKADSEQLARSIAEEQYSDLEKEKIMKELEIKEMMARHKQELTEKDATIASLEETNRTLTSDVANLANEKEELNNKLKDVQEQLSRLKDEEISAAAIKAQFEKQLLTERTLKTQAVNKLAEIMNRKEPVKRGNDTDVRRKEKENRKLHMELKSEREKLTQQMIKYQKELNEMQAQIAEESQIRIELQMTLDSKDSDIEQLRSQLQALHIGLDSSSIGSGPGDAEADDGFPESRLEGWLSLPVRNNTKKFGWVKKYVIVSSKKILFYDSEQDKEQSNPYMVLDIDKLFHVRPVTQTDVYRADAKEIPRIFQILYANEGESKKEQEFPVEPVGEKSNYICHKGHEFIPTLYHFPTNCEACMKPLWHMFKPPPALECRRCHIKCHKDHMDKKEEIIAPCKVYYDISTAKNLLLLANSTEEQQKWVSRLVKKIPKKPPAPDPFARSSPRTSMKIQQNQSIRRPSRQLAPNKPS
Chain of JNK/SAPK1c (P45983 whole entry): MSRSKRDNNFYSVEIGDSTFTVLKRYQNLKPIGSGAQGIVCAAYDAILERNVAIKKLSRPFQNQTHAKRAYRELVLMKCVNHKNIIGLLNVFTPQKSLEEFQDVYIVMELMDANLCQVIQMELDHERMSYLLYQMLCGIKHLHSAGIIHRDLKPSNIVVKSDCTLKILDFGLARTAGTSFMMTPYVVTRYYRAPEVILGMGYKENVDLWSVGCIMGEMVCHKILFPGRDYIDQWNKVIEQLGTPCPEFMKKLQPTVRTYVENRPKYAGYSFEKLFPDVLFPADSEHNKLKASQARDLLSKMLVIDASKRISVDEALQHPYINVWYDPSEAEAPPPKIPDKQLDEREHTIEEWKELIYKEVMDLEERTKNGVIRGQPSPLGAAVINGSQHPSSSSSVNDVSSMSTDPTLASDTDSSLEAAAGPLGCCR

Turning to `CC1=C(C2=C(C)C(=O)c3c(c(C=O)c(O)c(O)c3C(C)C)C2=O)C(=O)c2c(C=O)c(O)c(O)c(C(C)C)c2C1=O` [Gossypolone, gossypolone, reference compound], the “Residual activity AMPK” value in the assay with AMPK is recorded as 66%. For the same compound, the remaining activity at 10 µM at JNK/SAPK1c was 86%; on MAPKAP-K1a, 55%; at SAPK2a/p38 it was 108%; on MKK1, 76%; on SAPK2b/p38β2, 102%; on CHK1 it was 24%. Further, the remaining activity at 10 µM at ROCK-II is 54%; at Lck it was 60%; on GSK3b, 43%; at SAPK3/p38g it was 83%; at NEK6, 89%; on CDK2/cyclin A it was 90%. Moreover, the remaining activity at 10 µM on PKA was found to be 69%; at PHK, 21%; on MAPKAP-K2, 28%; at MAPK2/ERK2, 46%; at PRAK, 9%; on MSK1, 85%.
